Our source for the IC50 and MIC values is ChEMBL document CHEMBL4616652, “Bioactive Polyhydroxanthones from Penicillium purpurogenum” (J Nat Prod, 2020).

Each structure is given as a SMILES string. In brackets after ≈: the same amount, converted by molar mass. Counter-ions that a name gives are not always drawn.

By IC50 is commonly meant the concentration at which inhibition is half-maximal. For orientation: MIC means the lowest concentration that inhibits growth of the organism.

Assay [1] has as its system A549. In words: Cytotoxicity against human A549 cells after 72 hrs by MTT assay. The format is functional, cell-based. To be noted: A549, 72 h. (In general: Tetrazolium dyes change colour on reduction, which living cells bring about.)
The subject of assay [2] is HeLa. In words: Cytotoxicity against human HeLa cells after 72 hrs by MTT assay. The format is functional, cell-based.
The subject of assay [3] is HepG2. In words: Cytotoxicity against human HepG2 cells after 72 hrs by MTT assay. The note with it: HepG2, 72 h. The format is functional, cell-based.
Assay [4] concerns Vero. In words: Cytotoxicity against African green monkey Vero cells incubated for 72 hrs by MTT assay. The format is cell-based. To be noted: Chlorocebus sabaeus.
Assay [5] relates to Staphylococcus aureus. In words: Antimicrobial activity against Staphylococcus aureus incubated for 7 hrs by alamar Blue assay. The format is functional.
The subject of assay [6] is Shigella dysenteriae. In words: Antimicrobial activity against Shigella dysenteriae incubated for 7 hrs by alamar Blue assay. The assay is classed as functional. A general note: The colour change of resazurin is a common sign of viable cells or microbes.
Assay [7] deals with Staphylococcus aureus. In words: Antimicrobial activity against methicillin-resistant Staphylococcus aureus incubated for 7 hrs by alamar Blue assay. The format is functional.

For `CC1=C[C@H](O)[C@]2(O)C(=O)c3c(O)cccc3O[C@@]2(C)[C@H]1O`, the IC50 in assay [1], in assay [2], in assay [3] and in assay [4] was > 50 µM throughout. The MIC in assay [5] and in assay [6] was > 100 µg/mL each time.
For the compound `CC1=C[C@H](O)[C@]2(O)C(=O)c3c(O)cccc3O[C@@]2(C)[C@H]1OC(=O)CCC(=O)O`, the IC50 in assay [1], in assay [2], in assay [3] and in assay [4] was > 50 µM throughout. For the same compound, the MIC in assay [5] and in assay [6] was > 100 µg/mL in each case.
As for `C[C@@]12O[C@]3(C(=O)c4c(O)cccc4O[C@@]3(C)[C@H]1O)[C@@H](O)[C@H]2O`, the IC50 in assay [1], in assay [2], in assay [3] and in assay [4] was > 50 µM throughout. In addition, the MIC in assay [5] and in assay [6] was > 100 µg/mL each time.
For the compound `COC(=O)CCC(=O)O[C@H]1[C@]2(C)O[C@@H]2C(O)=C2C(=O)c3c(ccc(-c4ccc5c(c4O)C(=O)C4=C(O)[C@H]6O[C@@]6(C)[C@H](OC(=O)CCC(=O)OC)[C@]4(C)O5)c3O)O[C@]21C`, the IC50 was 0.6 µM in assay [1], 0.3 µM in assay [2], 0.5 µM in assay [3] and > 50 µM in assay [4]. The MIC stood at 0.4 µg/mL (≈ 0.496 µM) in assay [7], 0.4 µg/mL (≈ 0.496 µM) in assay [5] and 6.3 µg/mL (≈ 7.81 µM) in assay [6].
In the case of `COc1cccc2c1C(=O)c1c(O)c3c(c(O)c1C2=O)C[C@@](O)(C(=O)CO)C[C@@H]3O[C@H]1C[C@H](N)[C@H](O)[C@H](C)O1` [DOXORUBICIN HYDROCHLORIDE], the values for the IC50 in assay [1] and in assay [2] were 0.7 µM and 0.5 µM, respectively.
Take `NC[C@H]1O[C@H](O[C@H]2[C@H](O)[C@@H](O[C@H]3O[C@H](CO)[C@@H](O)[C@H](N)[C@H]3O)[C@H](N)C[C@@H]2N)[C@H](O)[C@@H](O)[C@@H]1O` [KANAMYCIN]: the values for the MIC in assay [7], in assay [5] and in assay [6] were > 100 µg/mL, 0.8 µg/mL (≈ 1.65 µM) and 0.2 µg/mL (≈ 0.413 µM), respectively.
Consider `COC(=O)CCC(=O)O[C@H]1[C@]2(C)O[C@@H]2C(O)=C2C(=O)c3c(ccc(-c4ccc5c(c4O)C(=O)C4=C(O)[C@H]6O[C@@]6(C)[C@H](OC(=O)CCC(=O)O)[C@]4(C)O5)c3O)O[C@]21C`, for which the concentration for half-maximal inhibition (IC50) in assay [1] was 32 µM; in assay [2], 7.6 µM; in assay [3], 4.8 µM; in assay [4], > 50 µM. In addition, the figures for the MIC in assay [7], in assay [5] and in assay [6] were 12.5 µg/mL (≈ 15.8 µM), 3.1 µg/mL (≈ 3.91 µM) and 6.3 µg/mL (≈ 7.95 µM), respectively.
As to `CN[C@H](CC(C)C)C(=O)N[C@H]1C(=O)N[C@@H](CC(N)=O)C(=O)N[C@H]2C(=O)N[C@H]3C(=O)N[C@H](C(=O)N[C@H](C(=O)O)c4cc(O)cc(O)c4-c4cc3ccc4O)[C@H](O)c3ccc(c(Cl)c3)Oc3cc2cc(c3O[C@@H]2O[C@H](CO)[C@@H](O)[C@H](O)[C@H]2O[C@H]2C[C@](C)(N)[C@H](O)[C@H](C)O2)Oc2ccc(cc2Cl)[C@H]1O` [VANCOMYCIN], the MIC in assay [7] came to 0.8 µg/mL (≈ 0.552 µM).
Take `C[C@@]12O[C@@H]1[C@H](O)[C@]1(O)C(=O)c3c(O)cccc3O[C@@]1(C)[C@H]2O`: the IC50 in assay [1], in assay [2], in assay [3] and in assay [4] was > 50 µM each time. In addition, the MIC in assay [5] and in assay [6] was > 100 µg/mL in each case.
For the compound `C[C@@H]1C[C@@H](O)[C@@]2(O)C(=O)c3c(O)cccc3O[C@]2(C)[C@H]1O`, the IC50 in assay [1], in assay [2], in assay [3] and in assay [4] was > 50 µM each time. Further, the MIC in assay [5] and in assay [6] was > 100 µg/mL in each case.
Take `C[C@@]12O[C@@H]1C(O)=C1C(=O)c3c(ccc(-c4ccc5c(c4O)C(=O)C4=C(O)[C@H]6O[C@@]6(C)[C@H](OC(=O)CCC(=O)O)[C@]4(C)O5)c3O)O[C@@]1(C)[C@H]2OC(=O)CCC(=O)O`: the IC50 in assay [1], in assay [2], in assay [3] and in assay [4] was > 50 µM in each case. The results for the MIC in assay [7], in assay [5] and in assay [6] were 100 µg/mL (≈ 128 µM), 12.5 µg/mL (≈ 16.1 µM) and 100 µg/mL (≈ 128 µM), respectively.
